Data from ChEMBL document CHEMBL6127065, “Design and Synthesis of c-Met and HDAC Dual Inhibitors for the Treatment of Breast Cancer” (ACS Med Chem Lett, 2024).

Columns and labels:
[1] = system: MDA-MB-231; assay: Induction of apoptosis in human MDA-MB-231 cells assessed as late apoptotic cells at […] uM incubated for 48 hrs by AnnexinV-FITC/PI staining based flow cytometry (reference value: 3.77 to 3.84%); type: functional; conditions: 1.25 µM
[2] = system: MDA-MB-231; assay: Induction of apoptosis in human MDA-MB-231 cells assessed as viable cells at 10 uM incubated for 48 hrs by AnnexinV-FITC/PI staining based flow cytometry (reference value: 91.22 to 92.84%); type: functional; conditions: read-out: Activity
[3] = system: MDA-MB-231; assay: Induction of cell cycle arrest in human MDA-MB-231 cells assessed as accumulation of cells at G0/G1 phase at 1 uM incubated for 48 hrs by PI staining based flow cytometry (reference value: 55.36 to 55.82%); type: functional
[4] = system: MDA-MB-231; assay: Induction of cell cycle arrest in human MDA-MB-231 cells assessed as accumulation of cells at G0/G1 phase at 25 uM incubated for 48 hrs by PI staining based flow cytometry (reference value: 55.36 to 55.82%); type: functional
[5] = system: MDA-MB-231; assay: Antiproliferative activity against human MDA-MB-231 cells assessed as reduction in cell growth incubated for 72 hrs by MTT assay; conditions: MDA-MB-231, 72 h
[6] = system: MDA-MB-231; assay: Induction of apoptosis in human MDA-MB-231 cells assessed as early apoptotic cells at […] uM incubated for 48 hrs by AnnexinV-FITC/PI staining based flow cytometry (reference value: 1.6 to 2.41%); type: functional; conditions: 1.25 µM
[7] = system: MDA-MB-231; assay: Induction of cell cycle arrest in human MDA-MB-231 cells assessed as accumulation of cells at G0/G1 phase at 10 uM incubated for 48 hrs by PI staining based flow cytometry (reference value: 55.36 to 55.82%); type: functional
[8] = system: MDA-MB-231; assay: Induction of cell cycle arrest in human MDA-MB-231 cells assessed as accumulation of cells at S phase at 2.5 uM incubated for 48 hrs by PI staining based flow cytometry (reference value: 12.56 to 14.76%); type: functional
[9] = system: MDA-MB-231; assay: Induction of apoptosis in human MDA-MB-231 cells assessed as early apoptotic cells at 10 uM incubated for 48 hrs by AnnexinV-FITC/PI staining based flow cytometry (reference value: 1.6 to 2.41%); type: functional
[10] = system: MDA-MB-231; assay: Induction of cell cycle arrest in human MDA-MB-231 cells assessed as accumulation of cells at G2/M phase at 2.5 uM incubated for 48 hrs by PI staining based flow cytometry (reference value: 29.42 to 32.08%); type: functional
[11] = system: MDA-MB-231; assay: Induction of cell cycle arrest in human MDA-MB-231 cells assessed as accumulation of cells at G2/M phase at 1 uM incubated for 48 hrs by PI staining based flow cytometry (reference value: 29.42 to 32.08%); type: functional
[12] = system: MDA-MB-231; assay: Induction of cell cycle arrest in human MDA-MB-231 cells assessed as accumulation of cells at S phase at 10 uM incubated for 48 hrs by PI staining based flow cytometry (reference value: 12.56 to 14.76%); type: functional
[13] = system: MDA-MB-231; assay: Induction of apoptosis in human MDA-MB-231 cells assessed as viable cells at […] uM incubated for 48 hrs by AnnexinV-FITC/PI staining based flow cytometry (reference value: 91.22 to 92.84%); type: functional; conditions: read-out: Activity
[14] = system: MDA-MB-231; assay: Induction of apoptosis in human MDA-MB-231 cells assessed as necrotic cells at 2.5 uM incubated for 48 hrs by AnnexinV-FITC/PI staining based flow cytometry (reference value: 1.79 to 2.53%); type: functional
[15] = system: MDA-MB-453; assay: Antiproliferative activity against human MDA-MB-453 cells assessed as reduction in cell growth incubated for 72 hrs by MTT assay; conditions: MDA-MB-453, 72 h
[16] = system: MDA-MB-231; assay: Induction of cell cycle arrest in human MDA-MB-231 cells assessed as accumulation of cells at G2/M phase at 25 uM incubated for 48 hrs by PI staining based flow cytometry (reference value: 29.42 to 32.08%); type: functional
[17] = system: MDA-MB-231; assay: Induction of apoptosis in human MDA-MB-231 cells assessed as late apoptotic cells at 10 uM incubated for 48 hrs by AnnexinV-FITC/PI staining based flow cytometry (reference value: 3.77 to 3.84%); type: functional
[18] = system: MDA-MB-231; assay: Induction of apoptosis in human MDA-MB-231 cells assessed as early apoptotic cells at 2.5 uM incubated for 48 hrs by AnnexinV-FITC/PI staining based flow cytometry (reference value: 1.6 to 2.41%); type: functional
[19] = system: MDA-MB-468; assay: Antiproliferative activity against human MDA-MB-468 cells assessed as reduction in cell growth incubated for 72 hrs by MTT assay; conditions: MDA-MB-468, 72 h
[20] = system: MDA-MB-231; assay: Induction of cell cycle arrest in human MDA-MB-231 cells assessed as accumulation of cells at S phase at 25 uM incubated for 48 hrs by PI staining based flow cytometry (reference value: 12.56 to 14.76%); type: functional
[21] = system: MDA-MB-231; assay: Induction of cell cycle arrest in human MDA-MB-231 cells assessed as accumulation of cells at G2/M phase at 10 uM incubated for 48 hrs by PI staining based flow cytometry (reference value: 29.42 to 32.08%); type: functional
[22] = system: MDA-MB-231; assay: Induction of apoptosis in human MDA-MB-231 cells assessed as necrotic cells at […] uM incubated for 48 hrs by AnnexinV-FITC/PI staining based flow cytometry (reference value: 1.79 to 2.53%); type: functional; conditions: 1.25 µM
[23] = system: MDA-MB-231; assay: Induction of cell cycle arrest in human MDA-MB-231 cells assessed as accumulation of cells at S phase at 1 uM incubated for 48 hrs by PI staining based flow cytometry (reference value: 12.56 to 14.76%); type: functional
[24] = system: MDA-MB-231; assay: Induction of apoptosis in human MDA-MB-231 cells assessed as late apoptotic cells at 2.5 uM incubated for 48 hrs by AnnexinV-FITC/PI staining based flow cytometry (reference value: 3.77 to 3.84%); type: functional
[25] = system: MDA-MB-231; assay: Inhibition of colony formation in human MDA-MB-231 cells at 0.5 to 10 uM incubated for 7 days by crystal violet staining based analysis; type: functional, cell-based; conditions: dose 0.5-10 µM, time 7.0 day
[26] = Cytotoxicity against human MCF-10A cells assessed as reduction in cell viability incubated for 72 hrs by MTT assay; type: toxicity, cell-based
[27] = system: MDA-MB-231; assay: Induction of cell cycle arrest in human MDA-MB-231 cells assessed as accumulation of cells at G0/G1 phase at 2.5 uM incubated for 48 hrs by PI staining based flow cytometry (reference value: 55.36 to 55.82%); type: functional
[28] = system: MDA-MB-231; assay: Induction of apoptosis in human MDA-MB-231 cells assessed as late apoptotic cells at 5 uM incubated for 48 hrs by AnnexinV-FITC/PI staining based flow cytometry (reference value: 3.77 to 3.84%); type: functional
[29] = molecular target: Hepatocyte growth factor receptor (Homo sapiens, UniProt P08581); assay: Inhibition of c-Met (unknown origin) using Poly(Glu:Tyr)(4:1) and ATP as substrate incubated for 45 mins by Kinase-Glo Max reagent based luminescence analysis
[30] = system: MDA-MB-231; assay: Induction of apoptosis in human MDA-MB-231 cells assessed as necrotic cells at 5 uM incubated for 48 hrs by AnnexinV-FITC/PI staining based flow cytometry (reference value: 1.79 to 2.53%); type: functional
[31] = system: MDA-MB-231; assay: Induction of apoptosis in human MDA-MB-231 cells assessed as early apoptotic cells at 5 uM incubated for 48 hrs by AnnexinV-FITC/PI staining based flow cytometry (reference value: 1.6 to 2.41%); type: functional
[32] = system: MDA-MB-231; assay: Induction of apoptosis in human MDA-MB-231 cells assessed as viable cells at 5 uM incubated for 48 hrs by AnnexinV-FITC/PI staining based flow cytometry (reference value: 91.22 to 92.84%); type: functional; conditions: read-out: Activity
[33] = system: MDA-MB-231; assay: Induction of apoptosis in human MDA-MB-231 cells assessed as necrotic cells at 10 uM incubated for 48 hrs by AnnexinV-FITC/PI staining based flow cytometry (reference value: 1.79 to 2.53%); type: functional
[34] = system: MDA-MB-231; assay: Induction of apoptosis in human MDA-MB-231 cells assessed as viable cells at 2.5 uM incubated for 48 hrs by AnnexinV-FITC/PI staining based flow cytometry (reference value: 91.22 to 92.84%); type: functional; conditions: read-out: Activity
[35] = molecular target: T1, Protein deacetylase HDAC6 (Homo sapiens) (UniProt Q9UBN7); conditions: dose 1000.0 nM, time 60.0 min
T1 sequence (whole entry): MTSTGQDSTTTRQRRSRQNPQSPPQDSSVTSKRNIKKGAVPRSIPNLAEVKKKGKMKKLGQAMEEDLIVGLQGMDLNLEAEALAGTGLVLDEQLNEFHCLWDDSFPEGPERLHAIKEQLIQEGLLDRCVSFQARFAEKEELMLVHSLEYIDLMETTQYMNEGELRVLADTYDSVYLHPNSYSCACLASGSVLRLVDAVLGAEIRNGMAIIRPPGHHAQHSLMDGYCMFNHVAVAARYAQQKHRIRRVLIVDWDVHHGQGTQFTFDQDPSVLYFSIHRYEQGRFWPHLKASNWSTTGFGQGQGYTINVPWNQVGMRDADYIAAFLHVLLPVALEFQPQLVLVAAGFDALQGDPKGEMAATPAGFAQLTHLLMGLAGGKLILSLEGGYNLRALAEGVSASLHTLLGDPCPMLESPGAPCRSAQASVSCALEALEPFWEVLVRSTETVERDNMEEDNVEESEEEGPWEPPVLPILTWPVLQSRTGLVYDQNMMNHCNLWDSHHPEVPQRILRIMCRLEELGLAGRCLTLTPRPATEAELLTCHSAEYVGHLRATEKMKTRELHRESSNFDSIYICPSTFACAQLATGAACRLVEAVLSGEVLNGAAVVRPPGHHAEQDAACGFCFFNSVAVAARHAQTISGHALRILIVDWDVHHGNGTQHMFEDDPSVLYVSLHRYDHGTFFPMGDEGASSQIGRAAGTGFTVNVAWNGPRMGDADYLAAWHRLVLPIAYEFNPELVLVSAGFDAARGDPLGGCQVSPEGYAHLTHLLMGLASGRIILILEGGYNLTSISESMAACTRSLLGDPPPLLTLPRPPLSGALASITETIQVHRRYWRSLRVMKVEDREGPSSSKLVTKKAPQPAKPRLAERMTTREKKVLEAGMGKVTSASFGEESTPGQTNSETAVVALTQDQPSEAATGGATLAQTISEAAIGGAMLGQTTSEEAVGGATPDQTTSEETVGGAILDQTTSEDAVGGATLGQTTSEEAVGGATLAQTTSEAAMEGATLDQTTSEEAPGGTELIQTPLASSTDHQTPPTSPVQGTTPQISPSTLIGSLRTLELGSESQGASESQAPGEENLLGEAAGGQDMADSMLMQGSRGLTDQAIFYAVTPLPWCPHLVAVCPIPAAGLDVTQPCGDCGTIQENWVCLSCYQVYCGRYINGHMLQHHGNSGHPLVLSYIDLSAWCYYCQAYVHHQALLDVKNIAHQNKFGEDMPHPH

Hepatocyte growth factor receptor, sequence (P08581 whole entry): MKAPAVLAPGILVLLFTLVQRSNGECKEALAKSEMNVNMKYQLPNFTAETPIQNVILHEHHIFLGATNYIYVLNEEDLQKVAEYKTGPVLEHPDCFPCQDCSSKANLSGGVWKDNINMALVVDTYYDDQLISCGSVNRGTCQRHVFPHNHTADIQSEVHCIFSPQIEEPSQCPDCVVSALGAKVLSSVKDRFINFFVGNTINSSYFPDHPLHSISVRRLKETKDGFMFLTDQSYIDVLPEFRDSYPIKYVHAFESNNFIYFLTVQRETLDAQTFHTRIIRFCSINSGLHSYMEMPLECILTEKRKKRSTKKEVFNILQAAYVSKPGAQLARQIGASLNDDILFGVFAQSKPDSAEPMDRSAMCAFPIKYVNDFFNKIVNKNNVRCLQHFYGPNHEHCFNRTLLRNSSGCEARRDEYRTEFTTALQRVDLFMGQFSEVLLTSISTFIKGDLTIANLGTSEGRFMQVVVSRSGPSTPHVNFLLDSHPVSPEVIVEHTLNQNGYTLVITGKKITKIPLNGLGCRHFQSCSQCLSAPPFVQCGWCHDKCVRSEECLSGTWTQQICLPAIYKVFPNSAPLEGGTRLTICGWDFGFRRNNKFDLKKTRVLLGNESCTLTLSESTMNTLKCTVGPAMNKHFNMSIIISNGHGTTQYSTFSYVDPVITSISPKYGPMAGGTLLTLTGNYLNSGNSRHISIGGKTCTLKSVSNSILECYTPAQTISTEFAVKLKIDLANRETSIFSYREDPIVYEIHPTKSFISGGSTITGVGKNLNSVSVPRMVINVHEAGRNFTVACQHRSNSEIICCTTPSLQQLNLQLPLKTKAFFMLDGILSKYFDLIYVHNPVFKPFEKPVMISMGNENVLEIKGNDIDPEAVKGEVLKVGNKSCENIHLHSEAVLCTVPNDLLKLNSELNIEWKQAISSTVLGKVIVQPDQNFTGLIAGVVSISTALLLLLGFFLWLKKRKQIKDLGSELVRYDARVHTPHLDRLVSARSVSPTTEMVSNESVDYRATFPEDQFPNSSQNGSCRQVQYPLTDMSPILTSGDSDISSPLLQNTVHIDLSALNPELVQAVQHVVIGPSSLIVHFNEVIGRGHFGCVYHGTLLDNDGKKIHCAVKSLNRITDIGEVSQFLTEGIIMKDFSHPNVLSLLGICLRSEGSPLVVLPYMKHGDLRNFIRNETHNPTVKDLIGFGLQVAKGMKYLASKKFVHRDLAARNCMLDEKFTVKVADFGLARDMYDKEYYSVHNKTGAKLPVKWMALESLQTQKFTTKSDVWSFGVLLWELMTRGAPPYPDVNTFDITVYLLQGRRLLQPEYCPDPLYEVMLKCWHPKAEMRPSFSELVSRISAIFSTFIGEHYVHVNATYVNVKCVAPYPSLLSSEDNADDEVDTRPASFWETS

CC(c1ccc2ncccc2c1)n1nnc2ncc(N3CCN(Cc4ccc(/C=C/C(=O)Nc5ccc(F)cc5N)cc4)CC3)nc21 (stereo unspecified)
Activity [1]: 5.18% | viability at 10 µM [2]: 85.2% | Activity [3]: 68.63% | Activity [4]: 74.44% | IC50 [5]: 1.63 µM | Activity [6]: 2% | Activity [7]: 72.67% | Activity [8]: 9.97% | Activity [9]: 3.12% | Activity [10]: 18.03% | Activity [11]: 21.12% | Activity [12]: 12.11% | viability at 1.25 µM [13]: 88.8% | Activity [14]: 2.21% | IC50 [15]: 3.88 µM | Activity [16]: 13.48% | Activity [17]: 9.5% | Activity [18]: 3.22% | IC50 [19]: 1.25 µM | Activity [20]: 12.08% | Activity [21]: 15.22% | Activity [22]: 4.05% | Activity [23]: 10.25% | Activity [24]: 7.16% | inhibition [25]: Dose-Dependent Effect | IC50 at 72 h [26]: > 25 µM | Activity [27]: 71% | Activity [28]: 8.25% | IC50 [29]: 0.0549 µM | Activity [30]: 1.98% | Activity [31]: 2.65% | viability at 5 µM [32]: 87.1% | Activity [33]: 2.15% | viability at 2.5 µM [34]: 87.4%

CC(c1ccc2ncccc2c1)n1nnc2ncc(N3CCN(CC(=O)Nc4ccccc4N)CC3)nc21 (stereo unspecified)
IC50 [5]: 26.6 µM | IC50 [15]: 27.2 µM | IC50 [19]: 14.2 µM

CC(c1ccc2ncccc2c1)n1nnc2ncc(N3CCN(Cc4ccc(CC(=O)Nc5ccccc5N)cc4)CC3)nc21 (stereo unspecified)
IC50 [5]: 8.64 µM | IC50 [15]: 8.94 µM | IC50 [19]: 6.35 µM

CC(c1ccc2ncccc2c1)n1nnc2ncc(N3CCN(Cc4ccc(CC(=O)Nc5ccc(F)cc5N)cc4)CC3)nc21 (stereo unspecified)
IC50 [5]: 6.46 µM | IC50 [15]: 5.91 µM | IC50 [19]: 3.92 µM

C[C@@H](c1ccc2nccn2c1)n1nnc2ncc(-c3cnn(C)c3)nc21 [SAVOLITINIB]
IC50 [29]: 0.00142 µM

C[C@@H](Oc1cc(-c2cnn(C3CCNCC3)c2)cnc1N)c1c(Cl)ccc(F)c1Cl [CRIZOTINIB]
IC50 [5]: 4.9 µM | IC50 [15]: 4.69 µM | IC50 [19]: 2.62 µM

Nc1cc(F)ccc1NC(=O)c1ccc(CNC(=O)/C=C/c2cccnc2)cc1 [TUCIDINOSTAT]
IC50 [5]: 1.72 µM | IC50 [15]: 0.63 µM | IC50 [19]: 3.48 µM | inhibition [35]: 2.6%
